Literature values in patent US20090048334A1, “Sodium ascorbate solubilisate” (priority 2004, published 2009).

Settings: for content of the agent in an aqueous solution: over an extended period of time

**Q.** With `O=C1O[C@H]([C@@H](O)CO)C(O)=C1O` [ascorbic acid] as the compound, how does the “added ascorbic acid present” value (aqueous ascorbic acid solution, after 30 days) read?
**A.** approximately 70%

**Q.** Which “content of the agent in an aqueous solution” value does the source give for `CCCCCCCCCCCCCCCC(=O)OC[C@H](O)[C@H]1OC(=O)C(O)=C1O` [ascorbylpalmitate] here?
**A.** remains constant

**Q.** With `O=C1O[C@H]([C@@H](O)CO)C([O-])=C1OP(=O)([O-])[O-].[Na+].[Na+].[Na+]` [sodium ascorbic phosphate] as the compound, how does the “content of the agent in an aqueous solution” value read?
**A.** remains constant
